Test results as given in patent US20210163453A1, “DERIVATIVES OF PAPAVERINE THAT ARE EFFECTIVE HYPOXIC TUMOR RADIOSENSITIZERS” (Ohio State Innovation Foundation, priority 2018, published 2021).

Experiments:
PDE10A = target: T1, PDE10A (Homo sapiens, UniProt Q9Y233); experiment: PDE10A enzymatic assay (PDE10A activity assay kit, BPS Bioscience); format: biochemical
T1 construct: purchased BPS Bioscience
Method: FIGS. 7A-7D show OCR and cellular toxicity data. […] Bars represent mean OCR and PDE10 inhibitory activities from at least 5 (OCR) or 3 (PDE) replicates. All experiments were repeated at least twice. […] Values are mean+−SEM. […]
The structure activity relationship of PPV relative to two assays was assessed: inhibition of cellular OCR by Seahorse, and inhibition of PDE10A by purified enzyme activity in multiwell plate (PDE10A activity assay kit, BPS Bioscience). […] These lead compounds were synthesized from commercial precursors and purified on silica gel column.

mitochondrial complex 1 = experiment: Seahorse OCR inhibition of PPV derivatives, normalized to PPV; format: cell-based
Method: FIGS. 7A-7D show OCR and cellular toxicity data. […]. Bars represent mean OCR and PDE10 inhibitory activities from at least 5 (OCR) or 3 (PDE) replicates. All experiments were repeated at least twice. […] Values are mean+−SEM.
Seahorse analysis of the OCR. Oxygen consumption rate (OCR) was measured using Seahorse XF96 Flux Analyzer (Agilent Technologies). The cells were seeded to attach overnight, wells were washed with pre-warmed XF Calibrant (Agilent Technologies) and the replaced with unbuffered Assay Medium (pH 7.4, 5 mM glucose, 1 mM L-glutamine). The plates were incubated at 37° C. in a CO2-free incubator for 2 hours prior to assay. For succinate rescue assay, cells were permeabilized using XF Plasma Membrane Permeabilizer Reagent (XF PMP, Agilent Technologies) according to the manufacturer's instructions. The OCR rate was measured in 1× Mitochondrial Assay Solution (MAS) (70 mM sucrose, 220 mM mannitol, 10 mM KH2PO4, 5 mM MgCl2, 2 mM Hepes, 0.6% (w/v) fatty acid-free BSA and 1 mM EGTA; pH 7.4). After baseline oxygenation was established, 1 μM rotenone or 10 μM PPV was injected at time A, followed by 5 mM succinate at time B. Error bars represent standard deviation. For the washout experiment, EO771 cells were seeded overnight, then treated with 10 μM PPV or 1 μM rotenone 3 hours prior to OCR measurement. Media was replaced 1 and 2 hours before measurement and OCR reported.
Because PPV's effect on mitochondrial function is independent of cAMP levels it was reasoned that there are two activities in PPV, one inhibiting complex 1 and one inhibiting PDE10A that may reside in different parts of the molecule. The structure activity relationship of PPV relative to two assays was assessed: inhibition of cellular OCR by Seahorse, and inhibition of PDE10A by purified enzyme activity in multiwell plate (PDE10A activity assay kit, BPS Bioscience). Because PPV can compete with rotenone as complex 1 inhibitors, it was reasoned that they may be binding the same site and therefore the structures would be similar relative to the mitochondrial binding target. […] Because the top was a planar structure similar to that of rotenone, and they compete with each other for the same binding pocket on complex 1 (FIG. 10) the lower portion of the molecule and how it may resemble rotenone were investigated in more detail. It was established that flexible linkage was preferred for mitochondrial activity and bulky adducts to the lower benzene ring may block it (FIG. 7C). […] These lead compounds were synthesized from commercial precursors and purified on silica gel column. Structures were confirmed by ^1H NMR and found to be >95% pure by HPLC.

[1] = test system: model tumors grown in mice; experiment: Tumor growth delay with radiation, model tumors pooled; format: in vivo; conditions: papaverine 30-60 minutes prior to radiation
Method: (§1) Tumor Growth kinetics. 2×10^6 EO771 or 5×10^6 A549 cells were injected s.c. into the flanks of 6-week old female immunocompetent C57/B6 (EO771) or immunocompromised nu/nu (A549) mice. Caliper measurements of opposing diameter were used to calculate the tumor volumes. Upon reaching […], the tumors were visualized by cone beam CT and treatment plans calculated using SARRP software. X-rays were delivered with a single beam delivering 5 Gy using the Small Animal Research Radiation Platform (SARRP, Xstrahl). Tumor volumes were measured until the post treatment volume increased 3-fold. Error bars represent standard deviation.
Both models of transplanted tumors that were used for the oxygenation experiments of papaverine's effect on radiation response in vivo were investigated. The murine breast cancer line EO771 that is syngeneic with the BL6 strain of mice was used and transplanted it orthotopically into the mammary fat pad of immune-competent mice. Also used was the human A549 lung adenocarcinoma line that was transplanted into the flank of immune-deficient mice. The breast cancers grew to approximately 150 mm^3 and were then randomized to receive either no treatment, a single dose of either 5 Gy, or papaverine at 2 mg/kg followed 30-40 minutes later by 5 Gy. […]

A549 cells = experiment: Trypan blue cell viability of A549 cells in normoxia and hypoxia; format: cell-based, Human; conditions: 100 μM papaverine, 72 h
Method: FIGS. 2A-2D are OCR measurements and cell viability assessments. FIG. 2A-2B are representative of OCR measurement in competition assay between PPV and complex I inhibitors piericidin A (FIG. 2A) and capsaicin (FIG. 2B). Values represent the means+−SD. FIGS. 2C-2D show trypan blue cell viability assessment (of n=3) of A549 cells treated with 100 μM papaverine or 1 μM rotenone in normoxia (FIG. 2C) and hypoxia (FIG. 2D) (T=72 h). Bar charts represent mean of viable cells in duplicates+−standard deviation.
Experimental: Cell lines. All cell lines were purchased from the American Type Culture Collection (ATCC) and grown DMEM (Corning) supplemented with 10% FBS (Seradigm) and 1% Penicillin/Streptomycin (Fisher Bioreagents) at 37° C. in 5% CO2. Cells were treated with inhibitors papaverine hydrochloride (Sigma-Aldrich), rotenone (Sigma-Aldrich), piericidin A (Santa Cruz), capsaicin (Sigma-Aldrich), antimycin A (Sigma-Aldrich) and succinic acid disodium salt (Sigma-Aldrich). Cell viability was assessed by trypan blue exclusion.

A549 flank xenografts = experiment: Tumor growth delay of A549 flank xenografts with radiation (XRT); format: in vivo, mice
Method: Curves represent mean tumor volumes+−SEM. P values were calculated against XRT with two-tailed two-sample t test. *P<0.05; **P<0.01; ***P<0.001; ****P<0.0001; n.s., not significant.
as §1
For the test of the A549 flank tumors, the tumors were treated similarly to the breast cancer model, but 8 Gy was used, and a treatment group added consisting of 8 Gy radiotherapy followed 30 minutes later by 2 mg/kg papaverine. The reverse schedule would indicate if the drug must be present before the radiation so that it would alter the tumor metabolism to make it more susceptible to the radiotherapy.

T1 sequence (Q9Y233 267-1055): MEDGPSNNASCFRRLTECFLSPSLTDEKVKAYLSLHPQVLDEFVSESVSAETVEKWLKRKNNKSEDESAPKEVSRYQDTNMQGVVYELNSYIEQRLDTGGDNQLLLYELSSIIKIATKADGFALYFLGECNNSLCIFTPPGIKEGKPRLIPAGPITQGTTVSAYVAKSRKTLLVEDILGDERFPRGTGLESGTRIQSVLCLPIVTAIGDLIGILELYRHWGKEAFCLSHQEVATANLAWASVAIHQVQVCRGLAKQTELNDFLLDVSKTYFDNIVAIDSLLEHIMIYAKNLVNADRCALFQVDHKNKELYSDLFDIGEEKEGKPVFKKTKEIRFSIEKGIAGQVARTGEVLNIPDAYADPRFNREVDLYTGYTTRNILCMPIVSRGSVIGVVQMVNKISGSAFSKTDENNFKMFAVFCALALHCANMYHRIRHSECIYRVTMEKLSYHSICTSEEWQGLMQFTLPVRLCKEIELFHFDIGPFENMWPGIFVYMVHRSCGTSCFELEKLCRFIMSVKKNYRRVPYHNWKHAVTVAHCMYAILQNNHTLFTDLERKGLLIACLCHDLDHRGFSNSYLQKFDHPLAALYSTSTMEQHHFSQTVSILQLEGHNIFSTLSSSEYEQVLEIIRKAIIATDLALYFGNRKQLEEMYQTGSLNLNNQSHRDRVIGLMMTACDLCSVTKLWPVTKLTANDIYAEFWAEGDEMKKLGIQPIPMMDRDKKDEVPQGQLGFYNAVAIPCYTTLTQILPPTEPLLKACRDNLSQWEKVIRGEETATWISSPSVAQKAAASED

## COc1cc2ccnc(Cc3cccc4ccccc34)c2cc1OC [SMV-32]
PDE10A; PDE10A2 enzymatic assay, n=3 replicates, read-out: PDE IC20 (PDE10A IC20)
  IC20: 12 µM
PDE10A; PDE10A inhibition at 1 μM, normalized to PPV
  Inhibitory activity PDE10A % of PPV: 38.66 % of PPV
PDE10A; compared to PPV
  PDE10 activity compared to PPV: 40%
Mitochondrial complex 1; Seahorse
  activity in cellular OCR assay: approaching that of rotenone
Mitochondrial complex 1; Seahorse, OCR inhibition at 10 μM concentration, normalized to PPV
  Inhibitory activity OCR % of PPV: 159.3 % of PPV
Mitochondrial complex 1; compared to PPV
  complex 1 activity compared to PPV: 160%

## COc1ccc(Cc2nccc3cc(OC)c(OC)cc23)cc1OC [PPV, papaverine]
[1]
  increase of relative growth delay of a single dose of radiation: 2-4 fold
[1]; listed as papaverine
  increase of relative growth delay of a single dose of radiation: 1.9-3.9 fold
A549 cells
  cellular toxicity in normoxia or hypoxia in vitro: no cellular toxicity
A549 flank xenografts; 2 mg/kg after 8 Gy
  effect of drug after XRT on growth delay: did not have any effect compared to radiation alone
A549 flank xenografts; 2 mg/kg before 8 Gy
  effect of drug before XRT on growth delay: enhances tumor growth delay
  increase in tumor growth delay compared to XRT alone: greater than 3 fold
A549 flank xenografts; 2 mg/kg before 8 Gy, listed as papaverine
  increase in tumor growth delay compared to XRT alone: 2.1-3.9 fold
